Results published in patent US20240366606A1, “MRGPRX2 ANTAGONISTS AND USES THEREOF” (The Regents of the University of California, priority 2021, published 2024).
Entries after “also recorded” stand apart in the source; their conditions may differ. Where two headings read alike, the source gives them in different places.

Tests used:
MRGPRX2 [1] = target: T1, MRGPRX2 (Homo sapiens (Human), UniProt Q96LB1); assay: FLIPR Ca2+ assay, antagonist mode, tetracycline-inducible MRGPRX2 stable cell line; type: cell-based; settings: for antagonist activity for MRGPRX2: in words, SAR around '1592; for inhibition of substance P stimulated MRGPRX2 activation: EC80 substance P concentration
Protocol: FLIPR Ca2+ assay. […] NK1 stably expressing cell were maintained in DMEM containing 10% (v/v) FBS, 100 units ml^−1 penicillin G and 100 μg ml^−1 streptomycin. On the day of assay, cells were plated into Poly-L-Lysine (PLL) coated 384-well black clear bottom cell culture plates with DMEM buffer, which is composed of 1% (v/v) dialyzed FBS, 100 units ml^−1 penicillin G, 100 μg ml^−1 streptomycin with 1 μg ml^−1 tetracycline at density of 20,000 cells in 40 μl per well for overnight. For NK1 stable cells, the same media used for MRGPRX2 or MRGPRX4 cells except the tetracycline were used. Medium was removed and cells were incubated with 20 μl of calcium dye (FLIPR Calcium 4 Assay Kit; Molecular Devices) diluted in assay buffer (1×HBSS, 2.5 mM probenecid, and 20 mM HEPES, pH 7.4) for 1 hour at 37° C. and 20 min at room temperature in the dark. To measure agonist activity of receptors, drug plates were prepared with increasing concentrations of test compound at 3 times the desired final concentration using drug buffer (1×HBSS, 20 mM HEPES, 0.1% (w/v) BSA, pH 7.4). Once loaded in FLIPR (Molecular Devices), basal fluorescence was measured for 10 s, then 10 μl of test compounds were added followed by continued fluorescence measurement for an additional 120 s. When measuring antagonist activity of receptors, drug plates were prepared with increasing concentrations of test compound at 4 times the desired final concentration, added as above for their potential effects on basal levels for 120 s first, followed by a 15 min incubation before addition of 10 μl of 4× of reference agonist at final concentration corresponding to the EC80. Data were normalized to % reference compound stimulation and analyzed using nonlinear regression “log(agonist) vs. response” in GraphPad Prism 9.0.

MRGPRX2 [2] = target: T1, MRGPRX2; assay: BRET1 recruitment assay (inverse agonist activity, miniGq recruitment) in HEK293T cells; type: cell-based
Protocol: Bioluminescence resonance energy transfer assay 1 (BRET1). To test the inverse agonist activities of MRGPRX2 compounds, BRET1 recruitment assay was performed. Human MRGPRX2 containing C-terminal Renilla luciferase (RLuc8), and Venus-tagged miniGq were co-transfected at a ratio of 1:5 using HEK293T cells. After 20-24 hours, transfected cells were plated into poly-L-lysine coated 96-well clear bottom white plate in plating media (DMEM+1% (v/v) dialyzed FBS). The next day, media was decanted and cells were washed once with 60 μl drug buffer (1×HBSS, 20 mM HEPES, 0.1% (w/v) BSA, pH 7.4), then 60 μl drug buffer containing 5 μM coelenterazine h (Promega) was added to each well and incubate for 5 min. Cells were then treated with 30 μl of 3× designated drug for an additional 5 minutes. After drug incubation, plates were read in an LB940 Mithras plate reader (Berthold Technologies) for both luminescence at 485 nm and fluorescent eYFP emission at 530 nm for 1 s per well. The ratio of eYFP/RLuc was calculated per well and the net BRET ratio was calculated and fitted using “log(inhibitor) vs. response” in GraphPad Prism 9.0 to represent the inhibitory effect of MRGPX2 compound.

NK1R = NK1R (Homo sapiens (Human), UniProt P25103); assay: FLIPR Ca2+ assay, antagonist mode, NK1R stable cell line; type: cell-based
Protocol: (§1) FLIPR Ca2+ assay. Tetracycline inducible MRGPRX2 or MRGPRX4 stable cells [Flp-In™ T-REx™-293 cell which is derived from HEK 293 cells (ATCC, CRL 1573)] were maintained in DMEM containing 10% (v/v) FBS, 100 units ml^−1 penicillin G, 100 μg ml^−1 streptomycin, 100 μg ml^−1 hygromycin B, and 15 μg ml^−1 blasticidin ^16. NK1 stably expressing cell were maintained in DMEM containing 10% (v/v) FBS, 100 units ml^−1 penicillin G and 100 μg ml^−1 streptomycin. On the day of assay, cells were plated into Poly-L-Lysine (PLL) coated 384-well black clear bottom cell culture plates with DMEM buffer, which is composed of 1% (v/v) dialyzed FBS, 100 units ml^−1 penicillin G, 100 μg ml^−1 streptomycin with 1 μg ml^−1 tetracycline at density of 20,000 cells in 40 μl per well for overnight. For NK1 stable cells, the same media used for MRGPRX2 or MRGPRX4 cells except the tetracycline were used. […] Once loaded in FLIPR (Molecular Devices), basal fluorescence was measured for 10 s, then 10 μl of test compounds were added followed by continued fluorescence measurement for an additional 120 s. […] Data were normalized to % reference compound stimulation and analyzed using nonlinear regression “log(agonist) vs. response” in GraphPad Prism 9.0.

MRGPRX4 = MRGPRX4 (Homo sapiens (Human), UniProt Q96LA9); assay: FLIPR Ca2+ assay, antagonist mode, tetracycline-inducible MRGPRX4 stable cell line; type: cell-based
Protocol: as §1

LAD2 human mast cells = assay: Human mast cell activation (beta-hexosaminidase release) assay; type: cell-based; settings: (R)-ZINC-3573 stimulation; listed as C9
Protocol: Human Mast Cell activation (Beta-hexosaminidase release) Assay. Mast cell activation was assessed by measuring extracellular release of Beta-hexosaminidase, a major component of mast cell granules. To assay human mast cell Beta-hexosaminidase release, LAD2 human mast cells were seeded at a concentration of 2*10^5 cells per well in 96-well plates in Tyrode's buffer (100 μl). 15 minutes prior to activation, varying concentrations of either C7 or C9 were added to the wells to reach a total volume of 190 μl. For activation, (R)-ZINC-3573 (10 μl, 2 μM) was added to each well for 30 minutes at 37° C. Separate wells received either buffer (buffer control), 0.1% Triton X-100 (total beta-hexosaminidase control), or (R)-ZINC-3573 alone (positive control) for the same amount of time. 30 μl of the supernatant were then removed from each well and added to 10 μl of NAG substrate solution (p-nitrophenyl-N-acetyl-β-D-glucosaminide) and allowed to incubate for 1 hour at 37° C. Carbonate buffer (100 μl) was then added to each well and the absorbance of each well was immediately measured at 405 nm using a plate reader. Percent degranulation (%) was calculated as follows: ((Treatment release−buffer release)/(total release−buffer release))*100. Samples were run in quadruplicate and each compound was assayed in at least two independent experiments. Data were analyzed using GraphPad Prism 9.0.

[3] = system: a number of GPCRs, ion channels and transporters; assay: Off-target profiling / inhibition screen (NIMH PDSP binding assays); settings: screened at 10 μM
Protocol: Inhibition screen. Binding assays were performed by the NIMH Psychoactive Drug Screening program as described previously (PMID: 23235874). Detailed binding assay protocols are available at: https://pdspdb.unc.edu/pdspWeb/content/UNC-CH %20Protocol %20Book.pdf.

[4] = Table 1, read-out: pKi (calc.) (converted)
[5] = antagonist activity at MRGPRX2, EC80 (R)-ZINC-3573 (3 μM), read-out: Ki value

T1 sequence (Q96LB1 whole entry): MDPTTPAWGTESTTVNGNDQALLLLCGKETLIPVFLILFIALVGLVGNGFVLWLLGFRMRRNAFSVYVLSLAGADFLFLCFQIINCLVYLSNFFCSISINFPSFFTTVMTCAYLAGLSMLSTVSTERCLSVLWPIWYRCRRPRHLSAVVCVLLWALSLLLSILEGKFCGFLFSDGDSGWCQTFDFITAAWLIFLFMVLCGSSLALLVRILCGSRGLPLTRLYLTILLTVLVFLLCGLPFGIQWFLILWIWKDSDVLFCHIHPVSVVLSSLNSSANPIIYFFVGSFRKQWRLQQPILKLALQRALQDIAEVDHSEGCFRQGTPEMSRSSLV
MRGPRX4, sequence (Q96LA9 whole entry): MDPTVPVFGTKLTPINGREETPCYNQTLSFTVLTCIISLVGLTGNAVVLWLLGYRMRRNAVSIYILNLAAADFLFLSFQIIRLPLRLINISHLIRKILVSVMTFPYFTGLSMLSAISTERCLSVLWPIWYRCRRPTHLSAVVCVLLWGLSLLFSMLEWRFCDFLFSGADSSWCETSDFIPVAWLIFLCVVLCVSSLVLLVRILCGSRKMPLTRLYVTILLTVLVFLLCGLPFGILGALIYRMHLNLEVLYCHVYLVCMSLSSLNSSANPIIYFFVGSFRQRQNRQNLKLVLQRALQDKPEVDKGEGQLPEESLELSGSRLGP
NK1R, sequence (P25103 whole entry, species assumed): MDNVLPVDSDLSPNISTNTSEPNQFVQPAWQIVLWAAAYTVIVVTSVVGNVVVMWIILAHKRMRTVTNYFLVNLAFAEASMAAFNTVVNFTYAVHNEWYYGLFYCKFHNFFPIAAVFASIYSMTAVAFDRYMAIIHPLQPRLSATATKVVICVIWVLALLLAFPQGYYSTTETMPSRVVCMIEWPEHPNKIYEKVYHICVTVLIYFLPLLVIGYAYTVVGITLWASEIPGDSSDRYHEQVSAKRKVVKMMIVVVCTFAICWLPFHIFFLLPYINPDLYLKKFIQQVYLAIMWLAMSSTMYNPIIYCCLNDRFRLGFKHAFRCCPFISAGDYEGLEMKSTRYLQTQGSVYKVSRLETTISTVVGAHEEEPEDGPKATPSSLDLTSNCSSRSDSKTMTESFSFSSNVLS

SMILES | Ki (MRGPRX2 [1]; Table 1, read-out: Ki) [nM] | pKi (calc.) (MRGPRX2 [1]; Table 1) | further results
O=c1c2ccccc2[nH]c(=S)n1Cc1ccccc1 [Compound 1] | 57 | – | Ki (MRGPRX2 [1]; [4]): 63.1 nM
O=c1c2ccccc2[nH]c(=S)n1Cc1ccon1 [Compound 5] | 895 | – | Ki (MRGPRX2 [1]; [4]): 1000 nM
Cn1ccnc1Cn1c(=S)[nH]c2ccccc2c1=O [Compound 6] | 318 | 6.5 | –
O=c1c2ccccc2[nH]c(=S)n1CCc1ccccn1 [Compound 7] | 6520 | 5.2 | antagonist activity for MRGPRX2 (MRGPRX2 [1]): inactive control
COc1cccnc1Cn1c(=S)[nH]c2ccccc2c1=O [Compound 8] | 57 | – | Ki (MRGPRX2 [1]; [4]): 63.1 nM
O=c1c2ccccc2[nH]c(=S)n1Cc1nccs1 [Compound 9] | 32 | 7.5 | inhibition of substance P stimulated MRGPRX2 activation (MRGPRX2 [1]; listed as C9): inhibit substance P stimulated MRGPRX2 activation; also recorded: could inhibit MRGPRX2 activation; Ki (MRGPRX2 [1]; [5]): 43 nM; antagonist activity for MRGPRX2 (MRGPRX2 [1]; listed as C9): improved antagonist activity; also recorded: most potent and selective antagonist; inverse agonist activity, inhibition of basal recruitment of Gq by MRGPRX2 (MRGPRX2 [2]; listed as C9): inhibit the basal recruitment of Gq by MRGPRX2; also recorded: inverse agonists; antagonist activity towards NK1R (NK1R): no antagonist activity; antagonist activity towards MRGPRX4 (MRGPRX4): no antagonist activity; inhibition of (R)-ZINC-3573-stimulated LAD2 human mast cell degranulation (LAD2 human mast cells): inhibit MRGPRX2 mediated LAD2 human mast activation; also recorded: inhibit (R)-ZINC-3573-stimulated LAD2 human mast cell degranulation in a concentration-dependent manner; off-target activity [3]: no significant activity
O=c1c2cc(F)ccc2[nH]c(=S)n1Cc1ccccn1 [Compound 14] | 2520 | 5.6 | –
O=c1c2ccccc2[nH]c(=S)n1Cc1ccon1 [Compound C9-1] | 172 | 6.76 ± 0.21 | –
O=c1c2ccccc2[nH]c(=S)n1Cc1ccc(Cl)cc1 [Compound C9-3] | 1780 | 5.75 ± 0.16 | –
O=c1c2ccccc2[nH]c(=S)n1Cc1ccccc1Cl [Compound C9-4] | 1160 | 5.93 ± 0.3 | –
COc1ccccc1Cn1c(=S)[nH]c2ccccc2c1=O [Compound C9-5] | 98 | 7.01 ± 0.07 | –
O=c1c2ccccc2[nH]c(=S)n1Cc1ccco1 [Compound C9-6] | 38 | 7.42 ± 0.06 | inhibition of substance P stimulated MRGPRX2 activation (MRGPRX2 [1]): inhibit substance P stimulated MRGPRX2 activation; also recorded: could inhibit MRGPRX2 activation; Ki (MRGPRX2 [1]; [5]): 58 nM; antagonist activity for MRGPRX2 (MRGPRX2 [1]): improved antagonist activity; also recorded: most potent and selective antagonist; inverse agonist activity, inhibition of basal recruitment of Gq by MRGPRX2 (MRGPRX2 [2]): inhibit the basal recruitment of Gq by MRGPRX2; also recorded: inverse agonists; antagonist activity towards NK1R (NK1R): no antagonist activity; antagonist activity towards MRGPRX4 (MRGPRX4): no antagonist activity; off-target activity [3]: no significant activity
Cc1csc(Cn2c(=S)[nH]c3ccccc3c2=O)n1 [Compound C9-7] | 929 | 6.03 ± 0.08 | –
O=c1c2ccccc2[nH]c(=S)n1Cc1cccs1 [Compound C9-8] | 514 | 6.29 ± 0.23 | –
O=c1c2ccccc2[nH]c(=S)n1Cc1ccsc1 [Compound C9-9] | 47 | 7.32 ± 0.04 | –
O=c1c2ccccc2[nH]c(=S)n1Cc1ccccn1 [ZINC16991592, reference compound] | 2190 | – | Ki (MRGPRX2 [1]; [4]): 2340 nM; Ki (MRGPRX2 [1]; [5]): 189 nM
